Here are results for 23 molecules from patent EP1148048A2, “Polyaromatic antiviral compositions” (PHARMACIA & UPJOHN COMPANY, priority 1997, dated 1998).

Assay type in all cases: cell-based
Assay [1] relates to HSV-1. Put plainly: Virus yield reduction assay, inhibition of HSV-1 viral replication in Vero cells. Conditions: read-out: % Inhibition Against HSV-1 Viral Replication. As for the experimental part: (§1) Compounds of the formulas II and III of the present invention are evaluated in an assay to measure the inhibition of HSV-1 viral replication in the presence of drug over a 14-16 hour period. The assay is discussed in detail by Pritchard, M.N. et al. "A Microliter Virus Yield Reduction Assay for the Evaluation of Antiviral Compounds Against Human Cytomegalovirus and Herpes Simplex Virus", J. Virol. Meth., Vol. 28, pp 101-106 (1990). Briefly, 80% confluent monolayers of Vero cells in 24 well plates are infected with low multiplicities of HSV-1 (MOI = .001). After an absorption period of 1 hour at 37 °C, the monolayers are rinsed with culture media and aliquots of compounds diluted into tissue culture media are added for 14-16 hours at 37 °C in a CO2 atmosphere. The growth media is removed and 1 ml of fresh media is added to each well and plates are placed at -70 °C. After a 1-5 day storage period the plates are rapidly thawed, samples are collected on ice and titrated on fresh Vero cell monolayers. Viral plaques are stained with 0.1% crystal violet in 20% alcohol for 10 minutes and are counted. Data are calculated to reflect the percentage of inhibition at indicated concentration relative to infected, non-drug treated controls.

The test system of assay [2] is VZV. Put plainly: Plaque reduction assay, VZV replication in HFF cells over five days. Here is the method: Antiviral activity against VZV are evaluated in an assay to measure the reduction of viral replication in the number viral plaques formed over five days of incubation in the presence of compounds of the present invention. Aliquots of VZV are added for 90 minutes to 24 well plates having HFF cells at 80% confluence to yield approximately 25 plaques for media treated wells. The plates are flicked and dilutions of compounds in tissue culture media at 2 time strength are added (0.5 ml per well). Immediately following the addition of drug 0.5 ml of 1.0% agarose is added to the wells and the plates are gently tapped to aid mixing. This final concentration of agarose (0.5%) is insufficient to solidify at 37 °C and serves as a semi solid overlay medium. Plates are undisturbed for five days. On day 5 the plates are examined microscopically for toxicity and plaques are counted using low power microscopy.
(In general: Plaques are areas of infected cells; plaque reduction assays count them against a control.)

Assay [3] concerns HSV-2. Put plainly: Virus yield reduction assay, inhibition of HSV-2 viral replication (substantially the same assay as for HSV-1). Here is the method:
as §1
Compounds of the formulas II and III of the present invention are also evaluated in substantially the same assay as described above to measure the inhibition of HSV-2 viral replication.

[4] abbreviates: Human alphaherpesvirus 1, Vero, 14 h.
Setting [5] is: Human alphaherpesvirus 1, 14 h, 5 µm, Vero cells, MOI = .001, 14-16 hours.
Setting [6] is: Human alphaherpesvirus 1, 14 h, 30 µm, Vero cells, MOI = .001, 14-16 hours.

Where two headings read alike, the source gives them in different places.

Consider `Cc1cccc(NS(=O)(=O)c2ccc(Oc3ccc(S(=O)(=O)Nc4cccc(C)c4)cc3)cc2)c1` [Example 11, bis[N-(3-methylphenyl)aminosulfonyl](oxydi-4,1-phenylene)], for which, in assay [1] (setting [4]), the inhibition at 5 µM is under 0% and the inhibition at 30 µM was 50 to 90%.

On to `O=S(=O)(c1ccc(O)cc1)c1ccc(OCc2ccc(Cl)cc2)cc1` [Example 22, (4-chlorobenzyloxy)hydroxy(sulfonyldi-4,1-phenylene)], for which, in assay [1] (setting [4]), the inhibition at 5 µM was under 0% and the inhibition at 30 µM was in the range of 50 to 90%.

`O=[N+]([O-])c1ccc(NC(=S)Nc2ccc(Oc3ccc(NC(=S)Nc4ccc([N+](=O)[O-])cc4)cc3)cc2)cc1` [Example 14, N,N"-(oxydi-4,1-phenylene)bis[N'-(4-nitrophenyl)thiourea]]: the inhibition at 5 µM in assay [1] (setting [5]) was under 0%. The inhibition at 30 µM in assay [1] (setting [6]) lay within 0 to 50%.

`O=S(=O)(c1ccc(OCc2ccc(Br)cc2)cc1)c1ccc(OCc2ccc(Br)cc2)cc1` [Example 18, bis(4-bromobenzyloxy)(sulfonyldi-4,1-phenylene)]: in assay [1] (setting [4]), the inhibition at 5 µM is 0 to 50% and the inhibition at 30 µM lay within 50 to 90%. Further, the “% Inhibition Against VZV Viral Replication” value in assay [2] (10µm) is listed as “+++ (>90% inhibition at the indicated concentration)”.

`COc1ccc(NC(=O)Nc2ccc(C)cc2)cc1NC(=O)Nc1ccc(C)cc1` [Example 4, N,N"-(4-methoxy-1,3-phenylene)bis[N'-(p-tolyl)urea]]: in assay [1] (setting [4]), the inhibition at 5 µM was 0 to 50% and the inhibition at 30 µM was 0 to 50%.

With `O=S(=O)(c1ccc(OCc2ccc(Cl)cc2)cc1)c1ccc(OCc2ccc(Cl)cc2)cc1` [Example 17, bis(4-chlorobenzyloxy)(sulfonyldi-4,1-phenylene)], the “% Inhibition Against HSV-2 Viral Replication” value in assay [3] (1µm) is given as “++ (> 50% inhibition at the indicated concentration)”. In addition, the “% Inhibition Against HSV-2 Viral Replication” value in assay [3] (10 µm) was “++ (> 50% inhibition at the indicated concentration)”. In addition, in assay [1] (setting [4]), the inhibition at 5 µM was 0 to 50% and the inhibition at 30 µM fell in the range of 50 to 90%. Besides, in assay [2] (2µm), the “% Inhibition Against VZV Viral Replication” value is listed as “++ (> 50% inhibition at the indicated concentration)”.

For the molecule `CSC(=NCCc1ccccc1)Nc1ccc(Oc2ccc(NC(=NCCc3ccccc3)SC)cc2)cc1` [Example 12, dimethyl N,N"-(oxydi-4,1-phenylene)bis[N'-(2-phenylethyl)carbamimidothioate]], the “% Inhibition Against HSV-2 Viral Replication” value was “+ (<50% inhibition at the indicated concentration)” in assay [3] (1µm) and “++ (> 50% inhibition at the indicated concentration)” in assay [3] (10 µm). In addition, the inhibition at 5 µM in assay [1] (setting [5]) lay in the range of 50 to 90%. The inhibition at 30 µM in assay [1] (setting [6]) was over 90%. For the same molecule, in assay [2] (2µm), the “% Inhibition Against VZV Viral Replication” value is recorded as “+++ (>90% inhibition at the indicated concentration)”.

Consider `O=C(Nc1ccc(Oc2ccc(NC(=O)c3ccco3)cc2)cc1)c1ccco1` [Example 16, N,N"-(oxydi-4,1-phenylene)bis(2-furancarboxamide)], for which, in assay [1] (setting [4]), the inhibition at 5 µM lay in the range of 0 to 50% and the inhibition at 30 µM was in the range of 50 to 90%.

With `COc1ccc(NC(=S)Nc2ccc([N+](=O)[O-])cc2)cc1NC(=S)Nc1ccc([N+](=O)[O-])cc1` [Example 7, N,N"-(4-methoxy-1,3-phenylene)bis[N'-(4-nitrophenyl)thiourea]], the inhibition at 5 µM in assay [1] (setting [5]) is under 0%. Moreover, the inhibition at 30 µM in assay [1] (setting [6]) was 0 to 50%.

In the case of `COc1ccc(NC(=O)Nc2ccc([N+](=O)[O-])cc2)cc1NC(=O)Nc1ccc([N+](=O)[O-])cc1` [Example 2, N,N"-(4-methoxy-1,3-phenylene)bis[N'-(4-nitrophenyl)urea]], the inhibition at 5 µM in assay [1] (setting [5]) is under 0%. Besides, the inhibition at 30 µM in assay [1] (setting [6]) was 50 to 90%.

Turning to `COc1cccc(NS(=O)(=O)c2ccc(Oc3ccc(S(=O)(=O)Nc4cccc(OC)c4)cc3)cc2)c1` [Example 9, bis[N-(3-methoxyphenyl)aminosulfonyl](oxydi-4,1-phenylene)], in assay [1] (setting [4]), the inhibition at 5 µM is 0 to 50% and the inhibition at 30 µM is over 90%.

On to `O=[N+]([O-])c1ccc(COc2ccc(S(=O)(=O)c3ccc(O)cc3)cc2)cc1` [Example 21, hydroxy(4-nitrobenzyloxy)(sulfonyldi-4,1-phenylene)], for which, in assay [1] (setting [4]), the inhibition at 5 µM was under 0% and the inhibition at 30 µM was 50 to 90%.

Turning to `S=C(NCCc1ccccc1)Nc1ccc(Oc2ccc(NC(=S)NCCc3ccccc3)cc2)cc1` [Example 15, N,N''-(oxydi-4,1-phenylene)bis[N'-(2-phenylethyl)thiourea]], the “% Inhibition Against HSV-2 Viral Replication” value in assay [3] (1µm) is listed as “+ (<50% inhibition at the indicated concentration)”. Further, the “% Inhibition Against HSV-2 Viral Replication” value in assay [3] (10 µm) was “+ (<50% inhibition at the indicated concentration)”. Also, in assay [1] (setting [4]), the inhibition at 5 µM was in the range of 0 to 50% and the inhibition at 30 µM lay within 0 to 50%. For the same molecule, the “% Inhibition Against VZV Viral Replication” value in assay [2] (2µm) is on record as “+++ (>90% inhibition at the indicated concentration)”.

With `O=[N+]([O-])c1ccc(NC(=S)Nc2ccc(Cc3ccc(NC(=S)Nc4ccc([N+](=O)[O-])cc4)cc3)cc2)cc1` [Example 23, N, N"-(methylenedi-4,1-phenylene)bis[N'-(4-nitrophenyl)thiourea]], the inhibition at 5 µM in assay [1] (setting [5]) was under 0%. Besides, in assay [1] (setting [6]), the inhibition at 30 µM is over 90%. The “% Inhibition Against VZV Viral Replication” value in assay [2] (10µm) is listed as “+ (<50% inhibition at the indicated concentration)”.

As for `CSC(=Nc1ccc([N+](=O)[O-])cc1)Nc1ccc(Oc2ccc(NC(=Nc3ccc([N+](=O)[O-])cc3)SC)cc2)cc1` [Example 8, dimethyl N,N"-(oxydi-4,1-phenylene)bis[N'-(4-nitrophenyl)carbamimidothioate]], in assay [1] (setting [5]), the inhibition at 5 µM is under 0%. Also, in assay [1] (setting [6]), the inhibition at 30 µM is 0 to 50%.

Consider `CSC(=Nc1ccccc1)Nc1ccc(Oc2ccc(NC(=Nc3ccccc3)SC)cc2)cc1` [Example 5, dimethyl N,N"-(oxydi-4,1-phenylene)bis [N'-(phenyl) carbamimidothioate]], for which the inhibition at 5 µM in assay [1] (setting [5]) was under 0%. Moreover, the inhibition at 30 µM in assay [1] (setting [6]) fell in the range of 0 to 50%.

Turning to `COc1ccc(NC(=S)Nc2ccc(Cl)cc2)cc1NC(=S)Nc1ccc(Cl)cc1` [Example 6, N,N"-(4-methoxy-1,3-phenylene)bis[N'-(4-chlorophenyl)thiourea]], in assay [1] (setting [4]), the inhibition at 5 µM was under 0% and the inhibition at 30 µM lay within 0 to 50%.

As to `O=S(=O)(c1ccc(OCc2ccc(F)cc2)cc1)c1ccc(OCc2ccc(F)cc2)cc1` [Example 20, bis(4-fluorobenzyloxy)(sulfonyldi-4,1-phenylene)], in assay [1] (setting [4]), the inhibition at 5 µM fell in the range of 0 to 50% and the inhibition at 30 µM is 50 to 90%.

As to `O=S(=O)(c1ccc(OCc2ccncc2)cc1)c1ccc(OCc2ccncc2)cc1` [Example 19, bis[(4-pyridyl)methoxy](sulfonyldi-4,1-phenylene)], in assay [1] (setting [4]), the inhibition at 5 µM fell in the range of 0 to 50% and the inhibition at 30 µM lay within 0 to 50%.

Turning to `N=C(Nc1ccc(Cc2ccc(NC(=N)c3ccccc3)cc2)cc1)c1ccccc1` [Example 13, N,N"-(methylenedi-4,1-phenylene)bis [benzenecarboximidamide]], the entries for the “% Inhibition Against HSV-2 Viral Replication” value in assay [3] (1µm) and in assay [3] (10 µm) were “+ (<50% inhibition at the indicated concentration)” and “+++ (>90% inhibition at the indicated concentration)”, respectively. Moreover, in assay [1] (setting [4]), the inhibition at 5 µM lay in the range of 0 to 50%. Moreover, the inhibition at 30 µM in assay [1] (setting [4]) was over 90%. For the same molecule, the “% Inhibition Against VZV Viral Replication” value in assay [2] (2µm) is recorded as “+ (<50% inhibition at the indicated concentration)”.

Turning to `Cc1ccc(NC(=S)Nc2ccc(Cl)cc2)cc1NC(=S)Nc1ccc(Cl)cc1` [Example 1, N,N"-(4-methyl-1,3-phenylene)bis[N'-(4-chlorophenyl)thiourea]], in assay [1] (setting [4]), the inhibition at 5 µM is under 0% and the inhibition at 30 µM was 0 to 50%.

Turning to `Cc1ccc(NS(=O)(=O)c2cccc(S(=O)(=O)Nc3ccc(C)cc3)c2)cc1` [Example 10, N,N"-(1,3-phenylene)bis[N-(p-tolyl)aminosulfonyl]], in assay [1] (setting [4]), the inhibition at 5 µM fell in the range of 0 to 50% and the inhibition at 30 µM lay within 50 to 90%.

On to `COc1ccc(NC(=O)Nc2ccc(Cl)cc2)cc1NC(=O)Nc1ccc(Cl)cc1` [Example 3, N,N"-(4-methoxy-1,3-phenylene)bis[N'-(4-chlorophenyl)urea]], for which, in assay [1] (setting [4]), the inhibition at 5 µM was in the range of 0 to 50% and the inhibition at 30 µM lay in the range of 0 to 50%.

One may read the inhibition as the share of the control response that was lost under treatment.
